According to patent US20140348819A1, “Methods of Treating Cancer” (Dana-Farber Cancer Institute, Inc., priority 2011, published 2014):

Columns and labels:
SK-MEL-5 = assay: Proliferation of SK-MEL-5 melanoma cells alone or co-cultured with stromal cell lines, PLX4720 with or without Crizotinib (Table 5); format: cell-based, human; conditions: DMSO (no Crizotinib)
Description: (§1) The DLD-1 cells do harbor the BRAF activating mutation V600E but are not sensitive at all to BRAF inhibition. They actually grow faster under BRAFi.
(§2) Proliferation was quantified after 7 days and normalized to non-treated cells. Bars represent standard error between replicates (n=3).
(§3) The propensity of tumors to develop resistance to a wide range of chemotherapy drugs imposes a critical hurdle to the treatment of most types of cancers. […] An optimized high-throughput screening system was used to explore the prevalence and significance of stromal cell-mediated chemoresistance in solid tumors. Forty-six GFP-labeled human cancer cell lines (Table 1) were cultured on 384-well plates either alone or co-cultured with each one of 23 human stromal cell lines (Table 3). The effects of a diverse range of widely used chemotherapy drugs (Table 2) on the proliferation of the single- or co-cultured cancer cell lines were assessed through GFP readings and through fluorescence microscopy.

[1] = tested on: V600E B-RAF melanoma cell lines; conditions: pre-clinical trials; cited from earlier work
WiDr = assay: Sensitivity of colorectal cancer cell line to PLX4720 with or without stromal cells (FIG. 2B); format: cell-based, human; conditions: colorectal cancer cell lines represented by WiDr
Description: The propensity of tumors to develop resistance to a wide range of chemotherapy drugs imposes a critical hurdle to the treatment of most types of cancers. While the role of the cellular microenvironment in tumor progression and metastasis has been increasingly studied in recent years, its effects on drug resistance are still underappreciated and poorly understood. An optimized high-throughput screening system was used to explore the prevalence and significance of stromal cell-mediated chemoresistance in solid tumors. Forty-six GFP-labeled human cancer cell lines (Table 1) were cultured on 384-well plates either alone or co-cultured with each one of 23 human stromal cell lines (Table 3). The effects of a diverse range of widely used chemotherapy drugs (Table 2) on the proliferation of the single- or co-cultured cancer cell lines were assessed through GFP readings and through fluorescence microscopy. Stroma-mediated primary chemoresistance was clearly detected across most cancer cell lines and chemotherapy drugs (FIGS. 1A and 1B, Tables 3 and 4). In most cases, only a small subset of the stromal cells could render a specific cancer-cell line more resistant to a specific drug, and this subset was usually the same across cancer cell lines from the same origin (FIGS. 1-4). […]

SK-MEL-28 = assay: Proliferation of SK-MEL-28 melanoma cells alone or co-cultured with stromal cell lines, PLX4720 with or without Crizotinib (Table 5); format: cell-based, human; conditions: DMSO (no Crizotinib)
Description: as §1, §2, §3

G361 = assay: Proliferation of G361 melanoma cells alone or co-cultured with stromal cell lines, PLX4720 with or without Crizotinib (Table 5); format: cell-based, human; conditions: for normalized proliferation: G361, PLX4720 - 2 uM, DMSO (no Crizotinib)
Description: as §1, §2, §3

CCCS(=O)(=O)Nc1ccc(F)c(C(=O)c2c[nH]c3ncc(Cl)cc23)c1F [PLX4720]
normalized proliferation (SK-MEL-5; 1069sk, PLX4720 - 2 uM): 0.4
normalized proliferation (SK-MEL-5; HS-5, PLX4720 - 2 uM): 0.5
normalized proliferation (SK-MEL-5; LL86, PLX4720 - 2 uM): 0.8
normalized proliferation (SK-MEL-5; No Fibro, PLX4720 - 2 uM): 0.3
normalized proliferation (SK-MEL-5; Wi-38, PLX4720 - 2 uM): 0.6
sensitivity of V600E B-RAF melanoma cell lines [1]: extremely sensitive
sensitivity to BRAFi (WiDr): largely not sensitive
normalized proliferation (SK-MEL-28; 1069sk, PLX4720 - 2 uM): 0.1
normalized proliferation (SK-MEL-28; HS-5, PLX4720 - 2 uM): 0.1
normalized proliferation (SK-MEL-28; LL86, PLX4720 - 2 uM): 0.3
normalized proliferation (SK-MEL-28; No Fibro, PLX4720 - 2 uM): 0.1
normalized proliferation (SK-MEL-28; Wi-38, PLX4720 - 2 uM): 0.4
normalized proliferation (G361; 1069sk): 0.1
normalized proliferation (G361; HS-5): 0.2
normalized proliferation (G361; LL86): 0.5
normalized proliferation (G361; No Fibro): 0.1
normalized proliferation (G361; Wi-38): 0.4
sensitivity to the BRAF inhibitor PLX4720 (G361; melanoma cell lines represented by G-361, FIG. 2B): sensitive
